Data: ChEMBL document CHEMBL4804284

Key:
Set-up in all cases: scale not given: the % may be the effect or the level left
[1] = target: Phosphatidylinositol 3-kinase C2 domain-containing subunit gamma (Homo sapiens) (UniProt O75747); experiment: Inhibition of DNA-tagged human PIK3C2G assessed as percent of control at 50000 nM by qPCR analysis relative to control
[2] = target: Ephrin type-A receptor 6 (Homo sapiens) (UniProt Q9UF33); experiment: Inhibition of DNA-tagged human EPHA6 assessed as percent of control at 50000 nM by qPCR analysis relative to control
[3] = target: Cyclin-dependent kinase 2 (Homo sapiens) (UniProt P24941); experiment: Inhibition of DNA-tagged human CDK2 assessed as percent of control at 50000 nM by qPCR analysis relative to control
[4] = target: Peripheral plasma membrane protein CASK (Homo sapiens) (UniProt O14936); experiment: Inhibition of DNA-tagged human CASK assessed as percent of control at 50000 nM by qPCR analysis relative to control
Sequence of Peripheral plasma membrane protein CASK (Homo sapiens) (O14936 whole entry): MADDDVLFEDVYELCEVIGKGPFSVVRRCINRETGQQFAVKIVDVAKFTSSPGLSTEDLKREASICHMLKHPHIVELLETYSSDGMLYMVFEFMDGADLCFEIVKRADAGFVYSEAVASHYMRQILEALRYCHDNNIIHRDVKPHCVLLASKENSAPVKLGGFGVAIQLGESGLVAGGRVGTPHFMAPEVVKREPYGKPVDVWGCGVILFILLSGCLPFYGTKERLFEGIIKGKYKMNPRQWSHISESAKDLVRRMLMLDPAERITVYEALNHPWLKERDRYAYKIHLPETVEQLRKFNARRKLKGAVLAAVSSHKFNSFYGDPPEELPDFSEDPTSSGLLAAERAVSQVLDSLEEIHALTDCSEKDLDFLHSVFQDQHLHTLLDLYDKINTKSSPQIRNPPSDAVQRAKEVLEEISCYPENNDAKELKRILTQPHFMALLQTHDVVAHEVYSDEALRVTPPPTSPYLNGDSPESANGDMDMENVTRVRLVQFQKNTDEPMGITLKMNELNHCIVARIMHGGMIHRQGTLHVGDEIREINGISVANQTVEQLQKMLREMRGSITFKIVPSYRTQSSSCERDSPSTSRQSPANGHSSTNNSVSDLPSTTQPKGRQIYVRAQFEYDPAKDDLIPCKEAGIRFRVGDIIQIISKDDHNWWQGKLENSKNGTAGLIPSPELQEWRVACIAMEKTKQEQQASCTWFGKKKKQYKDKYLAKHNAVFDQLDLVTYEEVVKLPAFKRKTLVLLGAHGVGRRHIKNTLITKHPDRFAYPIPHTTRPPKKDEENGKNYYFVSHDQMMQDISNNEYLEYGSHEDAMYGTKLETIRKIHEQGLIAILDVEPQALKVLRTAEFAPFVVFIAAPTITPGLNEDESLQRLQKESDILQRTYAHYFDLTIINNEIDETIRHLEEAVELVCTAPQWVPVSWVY

[5] = target: Tyrosine-protein kinase SYK (Homo sapiens) (UniProt P43405); experiment: Inhibition of DNA-tagged human SYK assessed as percent of control at 50000 nM by qPCR analysis relative to control
[6] = target: Ribosomal protein S6 kinase alpha-6 (Homo sapiens) (UniProt Q9UK32); experiment: Inhibition of DNA-tagged human N-terminal RSK4 kinase domain 1 assessed as percent of control at 50000 nM by qPCR analysis relative to control
[7] = target: Mitogen-activated protein kinase kinase kinase 20 (Homo sapiens) (UniProt Q9NYL2); experiment: Inhibition of DNA-tagged human ZAK assessed as percent of control at 50000 nM by qPCR analysis relative to control
[8] = target: Receptor tyrosine-protein kinase erbB-3 (Homo sapiens) (UniProt P21860); experiment: Inhibition of DNA-tagged human ERBB3 assessed as percent of control at 50000 nM by qPCR analysis relative to control
[9] = target: Serine/threonine-protein kinase 33 (Homo sapiens) (UniProt Q9BYT3); experiment: Inhibition of DNA-tagged human STK33 assessed as percent of control at 50000 nM by qPCR analysis relative to control
[10] = target: SRSF protein kinase 3 (Homo sapiens) (UniProt Q9UPE1); experiment: Inhibition of DNA-tagged human SRPK3 assessed as percent of control at 50000 nM by qPCR analysis relative to control
Sequence of SRSF protein kinase 3 (Homo sapiens) (Q9UPE1 whole entry, the tested form may be a part): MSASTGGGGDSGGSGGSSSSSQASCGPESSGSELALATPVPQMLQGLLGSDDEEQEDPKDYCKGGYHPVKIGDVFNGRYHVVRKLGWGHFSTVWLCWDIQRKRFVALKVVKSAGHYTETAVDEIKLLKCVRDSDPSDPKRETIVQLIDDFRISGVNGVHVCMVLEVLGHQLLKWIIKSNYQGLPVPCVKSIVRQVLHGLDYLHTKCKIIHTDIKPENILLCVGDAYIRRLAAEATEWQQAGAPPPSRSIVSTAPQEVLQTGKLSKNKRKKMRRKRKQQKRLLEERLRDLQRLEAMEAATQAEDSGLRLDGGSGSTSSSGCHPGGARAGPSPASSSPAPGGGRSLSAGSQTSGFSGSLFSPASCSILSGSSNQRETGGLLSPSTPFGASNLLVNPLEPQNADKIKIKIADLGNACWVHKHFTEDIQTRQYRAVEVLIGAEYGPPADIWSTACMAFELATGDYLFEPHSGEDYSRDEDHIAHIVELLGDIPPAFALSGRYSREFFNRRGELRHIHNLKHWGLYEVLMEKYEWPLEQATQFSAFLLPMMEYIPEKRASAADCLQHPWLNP

[11] = target: Ribosomal protein S6 kinase alpha-2 (Homo sapiens) (UniProt Q15349); experiment: Inhibition of DNA-tagged human C-terminal RSK3 kinase domain 2 assessed as percent of control at 50000 nM by qPCR analysis relative to control
[12] = tested on: Mast/stem cell growth factor receptor Kit (Homo sapiens), P10721 [L576P]; experiment: Inhibition of DNA-tagged human KIT L576P mutant assessed as percent of control at 50000 nM by qPCR analysis relative to control
[13] = target: Serine/threonine-protein kinase MRCK alpha (Homo sapiens) (UniProt Q5VT25); experiment: Inhibition of DNA-tagged human MRCKA assessed as percent of control at 50000 nM by qPCR analysis relative to control
[14] = target: Non-receptor tyrosine-protein kinase TNK1 (Homo sapiens) (UniProt Q13470); experiment: Inhibition of DNA-tagged human TNK1 assessed as percent of control at 50000 nM by qPCR analysis relative to control
[15] = target: Transient receptor potential cation channel subfamily M member 6 (Homo sapiens) (UniProt Q9BX84); experiment: Inhibition of DNA-tagged human TRPM6 assessed as percent of control at 50000 nM by qPCR analysis relative to control
[16] = target: Serine/threonine-protein kinase 25 (Homo sapiens) (UniProt O00506); experiment: Inhibition of DNA-tagged human YSK1 assessed as percent of control at 50000 nM by qPCR analysis relative to control
[17] = target: Uncharacterized serine/threonine-protein kinase SBK3 (Homo sapiens) (UniProt P0C264); experiment: Inhibition of DNA-tagged human SgK110 assessed as percent of control at 50000 nM by qPCR analysis relative to control
[18] = target: Serine/threonine-protein kinase ULK1 (Homo sapiens) (UniProt O75385); experiment: Inhibition of DNA-tagged human ULK1 assessed as percent of control at 50000 nM by qPCR analysis relative to control
[19] = target: Dual specificity protein kinase CLK3 (Homo sapiens) (UniProt P49761); experiment: Inhibition of DNA-tagged human CLK3 assessed as percent of control at 50000 nM by qPCR analysis relative to control
Sequence of Dual specificity protein kinase CLK3 (Homo sapiens) (P49761 whole entry, looked up): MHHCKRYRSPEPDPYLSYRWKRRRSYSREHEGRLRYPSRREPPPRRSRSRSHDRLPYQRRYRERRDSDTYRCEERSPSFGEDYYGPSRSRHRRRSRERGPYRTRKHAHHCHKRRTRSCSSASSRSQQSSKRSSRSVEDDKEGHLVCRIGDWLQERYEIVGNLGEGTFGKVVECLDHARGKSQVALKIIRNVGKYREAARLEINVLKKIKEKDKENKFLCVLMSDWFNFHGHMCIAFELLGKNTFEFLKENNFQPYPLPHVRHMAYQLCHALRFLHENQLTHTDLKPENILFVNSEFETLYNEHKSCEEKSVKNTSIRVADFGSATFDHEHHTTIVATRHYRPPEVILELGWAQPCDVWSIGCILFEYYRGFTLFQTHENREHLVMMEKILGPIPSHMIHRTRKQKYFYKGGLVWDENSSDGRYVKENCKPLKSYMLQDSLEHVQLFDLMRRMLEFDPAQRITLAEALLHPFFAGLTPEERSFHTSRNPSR

[20] = target: Cyclin-dependent kinase 11B (Homo sapiens) (UniProt P21127); experiment: Inhibition of DNA-tagged human CDC2L1 assessed as percent of control at 50000 nM by qPCR analysis relative to control
[21] = target: Serine/threonine-protein kinase BRSK1 (Homo sapiens) (UniProt Q8TDC3); experiment: Inhibition of DNA-tagged human BRSK1 assessed as percent of control at 50000 nM by qPCR analysis relative to control
[22] = target: Casein kinase I isoform gamma-2 (Homo sapiens) (UniProt P78368); experiment: Inhibition of DNA-tagged human CSNK1G2 assessed as percent of control at 50000 nM by qPCR analysis relative to control
[23] = target: Insulin receptor (Homo sapiens) (UniProt P06213); experiment: Inhibition of DNA-tagged human INSR assessed as percent of control at 50000 nM by qPCR analysis relative to control
Sequence of Insulin receptor (Homo sapiens) (P06213 28-758 limits assumed): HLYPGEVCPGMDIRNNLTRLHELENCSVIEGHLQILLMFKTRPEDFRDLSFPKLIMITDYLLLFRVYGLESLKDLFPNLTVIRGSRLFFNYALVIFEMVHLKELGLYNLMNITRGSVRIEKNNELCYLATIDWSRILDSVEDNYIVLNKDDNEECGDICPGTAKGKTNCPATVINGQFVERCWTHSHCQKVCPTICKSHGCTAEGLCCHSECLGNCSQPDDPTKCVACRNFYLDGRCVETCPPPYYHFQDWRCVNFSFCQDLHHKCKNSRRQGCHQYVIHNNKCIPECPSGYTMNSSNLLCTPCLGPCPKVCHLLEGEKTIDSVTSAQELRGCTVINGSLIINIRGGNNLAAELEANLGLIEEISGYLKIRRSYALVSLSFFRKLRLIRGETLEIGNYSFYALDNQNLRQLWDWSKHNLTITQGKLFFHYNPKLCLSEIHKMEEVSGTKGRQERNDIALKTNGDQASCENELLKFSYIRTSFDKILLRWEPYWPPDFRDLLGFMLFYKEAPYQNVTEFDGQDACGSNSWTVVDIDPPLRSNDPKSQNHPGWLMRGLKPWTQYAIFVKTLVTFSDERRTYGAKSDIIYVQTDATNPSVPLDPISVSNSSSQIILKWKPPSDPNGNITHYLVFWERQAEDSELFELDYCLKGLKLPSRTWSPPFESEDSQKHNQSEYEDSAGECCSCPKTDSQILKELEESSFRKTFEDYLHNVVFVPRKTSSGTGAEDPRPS
Sequence of Insulin receptor (Homo sapiens) (P06213 763-1382 limits assumed): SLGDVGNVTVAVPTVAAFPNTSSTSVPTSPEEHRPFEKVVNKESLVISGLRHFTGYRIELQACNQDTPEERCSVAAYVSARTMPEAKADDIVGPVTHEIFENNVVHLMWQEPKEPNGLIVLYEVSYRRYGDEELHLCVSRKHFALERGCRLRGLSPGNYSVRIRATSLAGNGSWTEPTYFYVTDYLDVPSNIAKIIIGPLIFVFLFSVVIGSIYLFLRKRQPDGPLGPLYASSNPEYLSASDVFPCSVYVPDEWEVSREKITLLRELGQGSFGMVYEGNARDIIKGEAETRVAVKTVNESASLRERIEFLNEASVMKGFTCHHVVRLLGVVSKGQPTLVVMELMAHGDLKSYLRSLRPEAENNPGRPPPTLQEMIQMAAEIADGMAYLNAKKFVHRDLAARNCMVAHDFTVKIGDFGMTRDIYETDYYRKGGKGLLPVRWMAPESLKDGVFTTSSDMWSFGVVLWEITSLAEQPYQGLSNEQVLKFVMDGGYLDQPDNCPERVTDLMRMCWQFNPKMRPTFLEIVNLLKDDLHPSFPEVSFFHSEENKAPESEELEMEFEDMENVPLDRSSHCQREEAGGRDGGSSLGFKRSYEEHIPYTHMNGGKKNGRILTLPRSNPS

[24] = target: Ribosomal protein S6 kinase alpha-4 (Homo sapiens) (UniProt O75676); experiment: Inhibition of DNA-tagged human N-terminal RPS6KA4 kinase domain assessed as percent of control at 50000 nM by qPCR analysis relative to control
Sequence of Ribosomal protein S6 kinase alpha-4 (Homo sapiens) (O75676 whole entry, looked up, the tested form may be a part): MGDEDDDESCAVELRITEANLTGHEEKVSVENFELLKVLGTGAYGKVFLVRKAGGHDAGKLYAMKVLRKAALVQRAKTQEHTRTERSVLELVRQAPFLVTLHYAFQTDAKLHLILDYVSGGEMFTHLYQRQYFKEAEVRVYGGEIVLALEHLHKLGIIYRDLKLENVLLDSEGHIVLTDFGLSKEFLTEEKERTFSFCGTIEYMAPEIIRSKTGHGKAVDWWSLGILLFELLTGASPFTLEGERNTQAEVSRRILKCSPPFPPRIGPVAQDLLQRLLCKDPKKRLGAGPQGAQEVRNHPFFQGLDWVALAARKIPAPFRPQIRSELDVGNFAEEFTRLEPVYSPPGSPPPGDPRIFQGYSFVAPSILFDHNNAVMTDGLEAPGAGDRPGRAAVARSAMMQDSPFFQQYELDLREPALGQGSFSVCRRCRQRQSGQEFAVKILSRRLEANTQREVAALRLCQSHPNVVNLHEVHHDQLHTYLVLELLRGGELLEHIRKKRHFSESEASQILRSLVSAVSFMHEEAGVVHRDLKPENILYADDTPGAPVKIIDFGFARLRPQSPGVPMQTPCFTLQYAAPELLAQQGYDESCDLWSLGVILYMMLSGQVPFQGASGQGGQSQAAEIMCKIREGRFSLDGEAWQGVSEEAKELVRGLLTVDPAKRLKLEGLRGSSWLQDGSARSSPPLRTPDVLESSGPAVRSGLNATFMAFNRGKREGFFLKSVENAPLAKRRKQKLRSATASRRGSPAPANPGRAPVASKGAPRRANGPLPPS

[25] = target: Mitogen-activated protein kinase kinase kinase 15 (Homo sapiens) (UniProt Q6ZN16); experiment: Inhibition of DNA-tagged human MAP3K15 assessed as percent of control at 50000 nM by qPCR analysis relative to control
[26] = target: Serine/threonine-protein kinase MARK2 (Homo sapiens) (UniProt Q7KZI7); experiment: Inhibition of DNA-tagged human MARK2 assessed as percent of control at 50000 nM by qPCR analysis relative to control
[27] = target: Dual specificity testis-specific protein kinase 1 (Homo sapiens) (UniProt Q15569); experiment: Inhibition of DNA-tagged human TESK1 assessed as percent of control at 50000 nM by qPCR analysis relative to control
Sequence of Dual specificity testis-specific protein kinase 1 (Homo sapiens) (Q15569 whole entry, looked up): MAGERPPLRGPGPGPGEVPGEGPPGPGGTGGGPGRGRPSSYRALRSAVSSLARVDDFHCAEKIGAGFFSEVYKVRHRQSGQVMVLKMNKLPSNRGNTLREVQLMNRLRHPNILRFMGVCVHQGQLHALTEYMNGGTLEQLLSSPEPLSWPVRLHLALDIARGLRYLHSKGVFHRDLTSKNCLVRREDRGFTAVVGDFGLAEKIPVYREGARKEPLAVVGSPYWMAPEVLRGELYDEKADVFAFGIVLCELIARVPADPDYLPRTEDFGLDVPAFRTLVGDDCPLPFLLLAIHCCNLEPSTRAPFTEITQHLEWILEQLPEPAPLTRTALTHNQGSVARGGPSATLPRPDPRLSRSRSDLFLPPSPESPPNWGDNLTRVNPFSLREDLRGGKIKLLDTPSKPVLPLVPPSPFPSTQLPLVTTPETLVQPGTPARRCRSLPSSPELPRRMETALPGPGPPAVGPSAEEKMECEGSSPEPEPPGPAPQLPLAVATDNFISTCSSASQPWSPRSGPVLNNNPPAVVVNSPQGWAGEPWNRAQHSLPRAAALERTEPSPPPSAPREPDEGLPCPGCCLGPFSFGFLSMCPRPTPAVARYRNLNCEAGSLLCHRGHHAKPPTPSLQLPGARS

[28] = target: Serine/threonine-protein kinase Nek5 (Homo sapiens) (UniProt Q6P3R8); experiment: Inhibition of DNA-tagged human NEK5 assessed as percent of control at 50000 nM by qPCR analysis relative to control
[29] = target: Calcium-dependent protein kinase 1 (Plasmodium falciparum) (UniProt P62344); experiment: Inhibition of DNA-tagged Plasmodium falciparum CDPK1 assessed as percent of control at 50000 nM by qPCR analysis relative to control
[30] = target: Death-associated protein kinase 1 (Homo sapiens) (UniProt P53355); experiment: Inhibition of DNA-tagged human DAPK1 assessed as percent of control at 50000 nM by qPCR analysis relative to control

`CN1C(=O)/C(=C2/C(=O)Nc3ccccc32)c2ccccc21` was tested, and the Activity [1] was 99%, the Activity [2] was 95% and the Activity [3] was 100%. For the same compound, the Activity [4] was 100%, the Activity [5] was 85% and the Activity [6] was 99%. It also gave an Activity [7] of 80%, an Activity [8] of 51% and an Activity [9] of 100%. For the same compound, the Activity [10] was 100%, the Activity [11] was 92% and the Activity [12] was 98%. For the same compound, the Activity [13] was 92%, the Activity [14] was 98% and the Activity [15] was 78%. It also gave an Activity [16] of 40%, an Activity [17] of 100% and an Activity [18] of 68%. For the same compound, the Activity [19] was 100%, the Activity [20] was 87% and the Activity [21] was 94%. It also gave an Activity [22] of 93%, an Activity [23] of 91% and an Activity [24] of 82%. For the same compound, the Activity [25] was 69%, the Activity [26] was 75% and the Activity [27] was 100%. For the same compound, the Activity [28] was 96%, the Activity [29] was 87% and the Activity [30] was 86%.
